Data taken from ChEMBL document CHEMBL4308864, “Targeting tyrosine kinase: Development of acridone - pyrrole - oxindole hybrids against human breast cancer” (2019).

What was measured:
Assay type in all cases: functional
OVCAR-3 = test: Growth inhibition of human OVCAR3 cells assessed as cell growth at 10^-5 M incubated for 48 hrs by sulforhodamine B assay relative to control; settings: OVCAR-3, 48 h, read-out: Activity
HCT-15 = test: Growth inhibition of human HCT15 cells assessed as cell growth at 10^-5 M incubated for 48 hrs by sulforhodamine B assay relative to control; settings: HCT-15, 48 h, read-out: Activity
SK-MEL-28 = test: Growth inhibition of human SK-MEL-28 cells assessed as cell growth at 10^-5 M incubated for 48 hrs by sulforhodamine B assay relative to control; settings: SK-MEL-28, 48 h, read-out: Activity
SK-MEL-5 = test: Growth inhibition of human SK-MEL-5 cells assessed as cell growth at 10^-5 M incubated for 48 hrs by sulforhodamine B assay relative to control; settings: SK-MEL-5, 48 h, read-out: Activity
RPMI-8226 = test: Growth inhibition of human RPMI8226 cells assessed as cell growth at 10^-5 M incubated for 48 hrs by sulforhodamine B assay relative to control; settings: RPMI-8226, 48 h, read-out: Activity
Hs-578T = test: Growth inhibition of human Hs578T cells assessed as cell growth at 10^-5 M incubated for 48 hrs by sulforhodamine B assay relative to control; settings: read-out: Activity
A549 = test: Growth inhibition of human A549/ATCC cells assessed as cell growth at 10^-5 M incubated for 48 hrs by sulforhodamine B assay relative to control; settings: A549, 48 h, read-out: Activity
HCT-116 = test: Growth inhibition of human HCT116 cells assessed as cell growth at 10^-5 M incubated for 48 hrs by sulforhodamine B assay relative to control; settings: HCT-116, 48 h, read-out: Activity
SK-OV-3 = test: Growth inhibition of human SKOV3 cells assessed as cell growth at 10^-5 M incubated for 48 hrs by sulforhodamine B assay relative to control; settings: SK-OV-3, 48 h, read-out: Activity
T47D = test: Growth inhibition of human T47D cells at 10^-5 M incubated for 48 hrs by sulforhodamine B assay relative to control; settings: read-out: GI
OVCAR-8 = test: Growth inhibition of human OVCAR8 cells assessed as cell growth at 10^-5 M incubated for 48 hrs by sulforhodamine B assay relative to control; settings: OVCAR-8, 48 h, read-out: Activity
NCI-H226 = test: Growth inhibition of human NCI-H226 cells assessed as cell growth at 10^-5 M incubated for 48 hrs by sulforhodamine B assay relative to control; settings: NCI-H226, 48 h, read-out: Activity
MDA-MB-231 = test: Growth inhibition of human MDA-MB-231 cells assessed as cell growth at 10^-5 M incubated for 48 hrs by sulforhodamine B assay relative to control; settings: MDA-MB-231, 48 h, read-out: Activity
HL-60(TB) = test: Growth inhibition of human HL-60(TB) cells assessed as cell growth at 10^-5 M incubated for 48 hrs by sulforhodamine B assay relative to control; settings: HL-60, 48 h, read-out: Activity
SN12C = test: Growth inhibition of human SN12C cells assessed as cell growth at 10^-5 M incubated for 48 hrs by sulforhodamine B assay relative to control; settings: read-out: Activity
MOLT-4 = test: Growth inhibition of human MOLT4 cells assessed as cell growth at 10^-5 M incubated for 48 hrs by sulforhodamine B assay relative to control; settings: MOLT-4, 48 h, read-out: Activity
786-0 = test: Growth inhibition of human 786-0 cells assessed as cell growth at 10^-5 M incubated for 48 hrs by sulforhodamine B assay relative to control; settings: 786-0, 48 h, read-out: Activity
OVCAR-4 = test: Growth inhibition of human OVCAR4 cells assessed as cell growth at 10^-5 M incubated for 48 hrs by sulforhodamine B assay relative to control; settings: OVCAR-4, 48 h, read-out: Activity
IGROV-1 = test: Growth inhibition of human IGROV1 cells assessed as cell growth at 10^-5 M incubated for 48 hrs by sulforhodamine B assay relative to control; settings: IGROV-1, 48 h, read-out: Activity
CCRF-CEM = test: Growth inhibition of human CCRF-CEM cells assessed as cell growth at 10^-5 M incubated for 48 hrs by sulforhodamine B assay relative to control; settings: read-out: Activity
UACC-257 = test: Growth inhibition of human UACC257 cells assessed as cell growth at 10^-5 M incubated for 48 hrs by sulforhodamine B assay relative to control; settings: UACC-257, 48 h, read-out: Activity
SK-MEL-2 = test: Growth inhibition of human SK-MEL-2 cells assessed as cell growth at 10^-5 M incubated for 48 hrs by sulforhodamine B assay relative to control; settings: SK-MEL-2, 48 h, read-out: Activity
NCI-H460 = test: Growth inhibition of human NCI-H460 cells assessed as cell growth at 10^-5 M incubated for 48 hrs by sulforhodamine B assay relative to control; settings: NCI-H460, 48 h, read-out: Activity
HCC 2998 = test: Growth inhibition of human HCC2998 cells assessed as cell growth at 10^-5 M incubated for 48 hrs by sulforhodamine B assay relative to control; settings: HCC 2998, 48 h, read-out: Activity
MCF7 = test: Growth inhibition of human MCF7 cells at 10^-5 M incubated for 48 hrs by sulforhodamine B assay relative to control; settings: MCF7, 48 h, read-out: GI
PC-3 = test: Growth inhibition of human PC3 cells assessed as cell growth at 10^-5 M incubated for 48 hrs by sulforhodamine B assay relative to control; settings: PC-3, 48 h, read-out: Activity
RXF 393 = test: Growth inhibition of human RXF393 cells assessed as cell growth at 10^-5 M incubated for 48 hrs by sulforhodamine B assay relative to control; settings: RXF 393, 48 h, read-out: Activity

Structure (SMILES) | growth at 10 µM (OVCAR-3) [%] | growth at 10 µM (HCT-15) [%] | growth at 10 µM (SK-MEL-28) [%] | growth at 10 µM (SK-MEL-5) [%] | growth at 10 µM (RPMI-8226) [%] | growth at 10 µM (Hs-578T) [%] | growth at 10 µM (A549) [%] | growth at 10 µM (HCT-116) [%] | growth at 10 µM (SK-OV-3) [%] | inhibition of growth at 10 µM (T47D) [%] | growth at 10 µM (OVCAR-8) [%] | growth at 10 µM (NCI-H226) [%] | growth at 10 µM (MDA-MB-231) [%] | growth at 10 µM (HL-60(TB)) [%] | growth at 10 µM (SN12C) [%] | growth at 10 µM (MOLT-4) [%] | growth at 10 µM (786-0) [%] | growth at 10 µM (OVCAR-4) [%] | growth at 10 µM (IGROV-1) [%] | growth at 10 µM (CCRF-CEM) [%] | further results
O=C1Nc2ccccc2/C1=C/c1cccn1CCCCCn1c2ccccc2c(=O)c2ccccc21 | 70.9 | 28.9 | 88.1 | 32.2 | 22.1 | 90.5 | 81.4 | 69.8 | 90.4 | 98 | 45.6 | 70 | 69.3 | 47.6 | 97.1 | 46 | 105 | 57.1 | 73 | 44.9 | growth at 10 µM (UACC-257): 106%; growth at 10 µM (SK-MEL-2): 84%; growth at 10 µM (NCI-H460): 95.9%; growth at 10 µM (HCC 2998): 42.5%; inhibition of growth at 10 µM (MCF7): 99%; growth at 10 µM (PC-3): 42%; growth at 10 µM (RXF 393): 89.2%
O=C1/C(=C\c2cccn2CCCCn2c3ccccc3c(=O)c3ccccc32)c2ccccc2N1c1c(Cl)cccc1Cl | 118 | 83.5 | 111 | 98.7 | 97.4 | 103 | 93 | 98.4 | 105 | 33 | 98.3 | 89.5 | 98.4 | 106 | 101 | 93.8 | 103 | 78.3 | 110 | 103 | growth at 10 µM (UACC-257): 101%; growth at 10 µM (SK-MEL-2): 105%; growth at 10 µM (NCI-H460): 104%; growth at 10 µM (HCC 2998): 46.7%; inhibition of growth at 10 µM (MCF7): 68%; growth at 10 µM (PC-3): 78.9%; growth at 10 µM (RXF 393): 97.5%
O=C1/C(=C\c2cccn2CCCCCCn2c3ccccc3c(=O)c3ccccc32)c2ccccc2N1c1c(Cl)cccc1Cl | 102 | 67.1 | 108 | 94.7 | 93.4 | 103 | 96 | 103 | 97.4 | 57 | 98.5 | 81.9 | 101 | 103 | 103 | 91.2 | 103 | 58.3 | 90.6 | 108 | growth at 10 µM (UACC-257): 99.6%; growth at 10 µM (SK-MEL-2): 98.8%; growth at 10 µM (NCI-H460): 109%; growth at 10 µM (HCC 2998): 78.8%; inhibition of growth at 10 µM (MCF7): 85%; growth at 10 µM (PC-3): 73.9%; growth at 10 µM (RXF 393): 97%
O=C1/C(=C\c2cccn2CCCCCn2c3ccccc3c(=O)c3ccccc32)c2ccccc2N1c1c(Cl)cccc1Cl | 99.1 | 59.8 | 113 | 96.2 | 92.3 | 101 | 85.9 | 85.9 | 95.6 | 72 | 97.7 | 91.6 | 97.5 | 96.8 | 100 | 87.6 | 104 | 62.3 | 98.7 | 100 | growth at 10 µM (UACC-257): 100%; growth at 10 µM (SK-MEL-2): 101%; growth at 10 µM (NCI-H460): 99.7%; growth at 10 µM (HCC 2998): 66.3%; inhibition of growth at 10 µM (MCF7): 87%; growth at 10 µM (PC-3): 73.2%; growth at 10 µM (RXF 393): 100%
O=C1Nc2ccccc2/C1=C/c1cccn1CCCCCCn1c2ccccc2c(=O)c2ccccc21 | 64.9 | 23 | 111 | 34.7 | 25.3 | 96.3 | 87.8 | 70.4 | 87.2 | 100 | 47.5 | 72.7 | 75.4 | 54.5 | 93.6 | 50.9 | 103 | 53.8 | 88 | 49.8 | growth at 10 µM (UACC-257): 110%; growth at 10 µM (SK-MEL-2): 86.2%; growth at 10 µM (NCI-H460): 90.7%; growth at 10 µM (HCC 2998): 42.8%; inhibition of growth at 10 µM (MCF7): 99%; growth at 10 µM (PC-3): 40.1%; growth at 10 µM (RXF 393): 99.2%
